Broadly, the Ki is a dissociation constant, usually derived from enzyme kinetics or from competition with a known ligand. For orientation: solubility means how much of the substance goes into solution per volume.

15 molecules from patent US20160039880A1 (priority 2012, published 2016) can be followed below.

In brackets after ≈: the same amount, converted by molar mass. Where two headings read alike, the source gives them in different places.

Data set [1] deals with T1, Human recombinant cyclophilin A (Cyp A) (Homo sapiens, UniProt P62937).
Data set [2] deals with T1, Human recombinant cyclophilin A (Cyp A). The experiment in a line: Protease-free PPIase assay.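 Note: cis to trans isomerization of SUC-AAPF-pNA by 2 nM enzyme, read as absorbance at 330 nm over 300 s at 10 °C, catalytic rate corrected for uncatalyzed background.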
Data set [3] is described as follows: Water Solubility Assay (measured in pH 7.8 buffer).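 For all read-outs here: precipitation onset detected as rise in absorbance at 650 nm across increasing concentrations, after shaking for 18 h, blank wells receiving DMSO only.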 It counts as physicochemical. The following applies: for solubility at 18 h: kinetic from dmso stock.
[4] abbreviates: 35 mM HEPES buffer pH 7.8, 25 °C, aqueous buffer, pH 7.8 buffer, read-out: Water Solubility Assay.

T1 sequence (P62937 whole entry): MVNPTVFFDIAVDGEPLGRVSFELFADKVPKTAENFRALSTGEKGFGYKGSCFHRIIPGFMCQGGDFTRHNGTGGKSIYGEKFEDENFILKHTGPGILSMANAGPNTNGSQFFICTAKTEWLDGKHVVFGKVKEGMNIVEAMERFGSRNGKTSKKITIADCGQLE

With `CC[C@H]1NC(=O)[C@@H]([C@H](O)[C@H](C)CCNCCOC)N(C)C(=O)[C@@H](C(C)C)N(C)C(=O)[C@@H](CC(C)C)N(C)C(=O)[C@@H](CC(C)C)N(C)C(=O)[C@H](C)NC(=O)[C@@H](C)NC(=O)[C@@H](CC(C)C)N(C)C(=O)[C@@H](C(C)C)NC(=O)[C@H](CC(C)C)N(C)C(=O)[C@@H](C)N(C)C1=O` [Compound AF, [(3R,4R,5S)-4-Hydroxy-3-methyl-5-(methylamino)-1-(2-methoxyethylamino)-hexanoic acid]^1[(R)-methyl-Sar]^3 cyclosporin A], the Ki in data set [1] was determined as 28 nM.
As for `CC[C@H]1NC(=O)[C@@H]([C@H](O)[C@H](C)CCN(C)Cc2ccncc2)N(C)C(=O)[C@@H](C(C)C)N(C)C(=O)[C@@H](CC(C)C)N(C)C(=O)[C@@H](CC(C)C)N(C)C(=O)[C@H](C)NC(=O)[C@@H](C)NC(=O)[C@@H](CC(C)C)N(C)C(=O)[C@@H](C(C)C)NC(=O)[C@H](CC(C)C)N(C)C(=O)[C@@H](C)N(C)C1=O` [Compound DL, [(3R,4R,5S)-4-Hydroxy-3-methyl-5-(methylamino)-1-({pyridin-4-ylmethyl}-methylamino)-hexanoic acid]^1[(R)-methyl-Sar]^3 cyclosporin A], the inhibition constant Ki in data set [2] amounted to 5.7 nM. For the same molecule, the solubility at 18 h in data set [3] (setting [4]) was more than 100 µM.
For the molecule `CC[C@H]1NC(=O)[C@@H]([C@H](O)[C@H](C)CCN(C)CCC(F)(F)F)N(C)C(=O)[C@@H](C(C)C)N(C)C(=O)[C@@H](CC(C)C)N(C)C(=O)[C@@H](CC(C)C)N(C)C(=O)[C@H](C)NC(=O)[C@@H](C)NC(=O)[C@@H](CC(C)C)N(C)C(=O)[C@@H](C(C)C)NC(=O)[C@H](CC(C)C)N(C)C(=O)[C@@H](C)N(C)C1=O` [Compound DN, [(3R,4R,5S)-4-Hydroxy-3-methyl-5-(methylamino)-1-({3,3,3-trifluoropropyl}-methyl-amino)-hexanoic acid]^1[(R)-methyl-Sar]^3 cyclosporin A], the Ki in data set [2] came out at 5.5 nM. The molecule also yielded a solubility at 18 h in data set [3] (25 °C, pH 7.8, aqueous buffer) of 25 to 50 µM (≈ 32.9 to 65.8 µg/mL).
In the case of `CC[C@H]1NC(=O)[C@@H]([C@H](O)[C@H](C)CCN(C)Cc2cc(C(F)(F)F)nn2C)N(C)C(=O)[C@@H](C(C)C)N(C)C(=O)[C@@H](CC(C)C)N(C)C(=O)[C@@H](CC(C)C)N(C)C(=O)[C@H](C)NC(=O)[C@@H](C)NC(=O)[C@@H](CC(C)C)N(C)C(=O)[C@@H](C(C)C)NC(=O)[C@H](CC(C)C)N(C)C(=O)[C@@H](C)N(C)C1=O` [Compound DO, [(3R,4R,5S)-4-Hydroxy-3-methyl-5-(methylamino)-1-({1-methyl-3-trifluoromethyl-2H-pyrazol-5-ylmethyl}-methylamino)-hexanoic acid]^1[(R)-methyl-Sar]^3 cyclosporin A], the Ki in data set [2] came to 2.8 nM. Further, the solubility at 18 h in data set [3] (setting [4]) was in the range of 10 to 25 µM (≈ 13.8 to 34.5 µg/mL).
`CC[C@H]1NC(=O)[C@@H]([C@H](O)[C@H](C)CCN2CCOC(C)(C)C2)N(C)C(=O)[C@@H](C(C)C)N(C)C(=O)[C@@H](CC(C)C)N(C)C(=O)[C@@H](CC(C)C)N(C)C(=O)[C@H](C)NC(=O)[C@@H](C)NC(=O)C(CC(C)C)N(C)C(=O)[C@@H](C(C)C)NC(=O)[C@H](CC(C)C)N(C)C(=O)[C@@H](C)N(C)C1=O` (stereo partly drawn) [Compound DS, [(3R,4R,5S)-1-(3,3-Dimethyl-morpholin-4-yl)-4-hydroxy-3-methyl-5-(methylamino)-hexanoic acid]^1[(R)-methyl-Sar]^3 cyclosporin A]: the Ki in data set [2] was 12 nM. For the same molecule, the solubility at 18 h in data set [3] (25 °C, pH 7.8, aqueous buffer) fell in the range of 75 to 100 µM (≈ 97.8 to 130 µg/mL).
For `CC[C@H]1NC(=O)[C@@H]([C@H](O)[C@H](C)CCN2CCOC[C@H]2C)N(C)C(=O)[C@@H](C(C)C)N(C)C(=O)[C@@H](CC(C)C)N(C)C(=O)[C@@H](CC(C)C)N(C)C(=O)[C@H](C)NC(=O)[C@@H](C)NC(=O)C(CC(C)C)N(C)C(=O)[C@@H](C(C)C)NC(=O)[C@H](CC(C)C)N(C)C(=O)[C@@H](C)N(C)C1=O` (stereo partly drawn) [Compound DT, [(3R,4R,5S)-4-Hydroxy-3-methyl-5-methylamino-((R)-3-methyl-morpholin-4-yl)-hexanoic acid]^1[(R)-methyl-Sar]^3 cyclosporin A], the Ki in data set [2] was found to be 4.7 nM. This molecule had a solubility at 18 h in data set [3] (25 °C, pH 7.8, aqueous buffer) of more than 100 µM.
In the case of `CC[C@H]1NC(=O)[C@@H]([C@H](O)[C@H](C)CCN2CCn3cnnc3C2)N(C)C(=O)[C@@H](C(C)C)N(C)C(=O)[C@@H](CC(C)C)N(C)C(=O)[C@@H](CC(C)C)N(C)C(=O)[C@H](C)NC(=O)[C@@H](C)NC(=O)C(CC(C)C)N(C)C(=O)[C@@H](C(C)C)NC(=O)[C@H](CC(C)C)N(C)C(=O)[C@@H](C)N(C)C1=O` (stereo partly drawn) [Compound DU, [(3R,4R,5S)-1-(5,6-Dihydro-8H-[1,2,4]triazolo[4,3-a]pyrazin-7-yl)-4-Hydroxy-3-methyl-5-(methylamino)-hexanoic acid]^1[(R)-methyl-Sar]^3 cyclosporin A], in data set [2], the Ki came out at 9.2 nM. Besides, in data set [3] (setting [4]), the solubility at 18 h was more than 100 µM.
For `CC[C@H]1NC(=O)[C@@H]([C@H](O)[C@H](C)CCN2CC3CCC(C2)O3)N(C)C(=O)[C@@H](C(C)C)N(C)C(=O)[C@@H](CC(C)C)N(C)C(=O)[C@@H](CC(C)C)N(C)C(=O)[C@H](C)NC(=O)[C@@H](C)NC(=O)C(CC(C)C)N(C)C(=O)[C@@H](C(C)C)NC(=O)[C@H](CC(C)C)N(C)C(=O)[C@@H](C)N(C)C1=O` (stereo partly drawn) [Compound DV, [(3R,4R,5S)-4-Hydroxy-3-methyl-5-(methylamino)-1-(8-oxa-3-aza-bicyclo[3.2.1]oct-3-yl)-hexanoic acid]^1[(R)-methyl-Sar]^3 cyclosporin A], the Ki in data set [2] worked out at 4.3 nM. Besides, in data set [3] (25 °C, pH 7.8, aqueous buffer), the solubility at 18 h was in the range of 50 to 75 µM (≈ 65.1 to 97.6 µg/mL).
`CC[C@H]1NC(=O)[C@@H]([C@H](O)[C@H](C)CCN2CCOC[C@@H]2C)N(C)C(=O)[C@@H](C(C)C)N(C)C(=O)[C@@H](CC(C)C)N(C)C(=O)[C@@H](CC(C)C)N(C)C(=O)[C@H](C)NC(=O)[C@@H](C)NC(=O)C(CC(C)C)N(C)C(=O)[C@@H](C(C)C)NC(=O)[C@H](CC(C)C)N(C)C(=O)[C@@H](C)N(C)C1=O` (stereo partly drawn) [Compound DW, [(3R,4R,5S)-4-Hydroxy-3-methyl-5-(methylamino)-1-((S)-3-methyl-morpholin-4-yl)-hexanoic acid]^1[(R)-methyl-Sar]^3 cyclosporin A]: the Ki in data set [2] is 6.5 nM. The molecule also showed a solubility at 18 h in data set [3] (25 °C, pH 7.8, aqueous buffer) of more than 100 µM.
For the molecule `CC[C@H]1NC(=O)[C@@H]([C@H](O)[C@H](C)CCN2CCOc3ccccc32)N(C)C(=O)[C@@H](C(C)C)N(C)C(=O)[C@@H](CC(C)C)N(C)C(=O)[C@@H](CC(C)C)N(C)C(=O)[C@H](C)NC(=O)[C@@H](C)NC(=O)C(CC(C)C)N(C)C(=O)[C@@H](C(C)C)NC(=O)[C@H](CC(C)C)N(C)C(=O)[C@@H](C)N(C)C1=O` (stereo partly drawn) [Compound DX, [(3R,4R,5S)-1-(2,3-Dihydro-benzo[1,4]oxazin-4-yl)-4-Hydroxy-3-methyl-5-(methylamino)-hexanoic acid]^1[(R)-methyl-Sar]^3 cyclosporin A], the Ki in data set [2] amounted to 5.2 nM. In addition, the solubility at 18 h in data set [3] (setting [4]) was in the range of 25 to 50 µM (≈ 33.1 to 66.2 µg/mL).
Take `CC[C@H]1NC(=O)[C@@H]([C@H](O)[C@H](C)CCN2CCC3(CC2)OCCO3)N(C)C(=O)[C@@H](C(C)C)N(C)C(=O)[C@@H](CC(C)C)N(C)C(=O)[C@@H](CC(C)C)N(C)C(=O)[C@H](C)NC(=O)[C@@H](C)NC(=O)C(CC(C)C)N(C)C(=O)[C@@H](C(C)C)NC(=O)[C@H](CC(C)C)N(C)C(=O)[C@@H](C)N(C)C1=O` (stereo partly drawn) [Compound DY, [(3R,4R,5S)-1-(1,4-Dioxa-8-aza-spiro[4.5]dec-8-yl)-4-Hydroxy-3-methyl-5-(methylamino)-hexanoic acid]^1[(R)-methyl-Sar]^3 cyclosporin A]: the inhibitory constant (Ki) in data set [2] amounted to 13 nM. Moreover, the solubility at 18 h in data set [3] (setting [4]) was more than 100 µM.
On the same counts, the results for `CC[C@H]1NC(=O)[C@@H]([C@H](O)[C@H](C)CCN2CCOC(c3ccccc3)C2)N(C)C(=O)[C@@H](C(C)C)N(C)C(=O)[C@@H](CC(C)C)N(C)C(=O)[C@@H](CC(C)C)N(C)C(=O)[C@H](C)NC(=O)[C@@H](C)NC(=O)C(CC(C)C)N(C)C(=O)[C@@H](C(C)C)NC(=O)[C@H](CC(C)C)N(C)C(=O)[C@@H](C)N(C)C1=O` (stereo partly drawn) [Compound DZ, [(3R,4R,5S)-4-Hydroxy-3-methyl-5-(methylamino)-1-(2-phenyl-morpholin-4-yl)-hexanoic acid]^1[(R)-methyl-Sar]^3 cyclosporin A] are 6 nM and 25 to 50 µM (≈ 33.8 to 67.6 µg/mL).
As for `CC[C@H]1NC(=O)[C@@H]([C@H](O)[C@H](C)CCN2CCOCC2)N(C)C(=O)[C@@H](C(C)C)N(C)C(=O)[C@@H](CC(C)C)N(C)C(=O)[C@@H](CC(C)C)N(C)C(=O)[C@H](C)NC(=O)[C@@H](C)NC(=O)[C@@H](CC(C)C)N(C)C(=O)[C@@H](C(C)C)NC(=O)[C@H](CC(C)C)N(C)C(=O)[C@@H](SC(C)C)N(C)C1=O` [Compound I, [(3R,4R,5S)-4-Hydroxy-3-methyl-5-(methylamino)-1-N-morpholino-hexanoic acid]^1[(S)-thio-isopropyl-Sar]^3 cyclosporin A], the Ki in data set [2] came out at 7.7 nM. The solubility at 18 h in data set [3] (25 °C, pH 7.8, aqueous buffer) is 25 to 50 µM (≈ 33.4 to 66.8 µg/mL).
As to `CCC1NC(=O)C(C(O)C(C)CCN(CC)CC)N(C)C(=O)C(C(C)C)N(C)C(=O)C(CC(C)C)N(C)C(=O)C(CC(C)C)N(C)C(=O)C(C)NC(=O)C(C)NC(=O)C(CC(C)C)N(C)C(=O)C(C(C)C)NC(=O)C(CC(C)C)N(C)C(=O)C(C)N(C)C1=O` [Compound M, [(3R,4R,5S)-4-hydroxy-3-methyl-5-(methylamino)-1-N-diethylamino-hexanoic acid]^1[(R)-Me-Sar]^3 cyclosporin A], the Ki in data set [2] (read-out: Protease-free PPIase Assay Ki, cyclophilin A, 10 °C) is 90 nM. The “Water Solubility Assay, concentration at which the compound remains in solution” value in data set [3] (35 mM HEPES pH 7.8, 1% DMSO, 25 °C, 18 h) was 75 to 100 µM.
Take `CC[C@H]1NC(=O)[C@@H]([C@H](O)[C@H](C)CCN2CCOCC2)N(C)C(=O)[C@@H](C(C)C)N(C)C(=O)[C@@H](CC(C)C)N(C)C(=O)[C@@H](CC(C)C)N(C)C(=O)[C@H](C)NC(=O)[C@@H](C)NC(=O)[C@@H](CC(C)C)N(C)C(=O)[C@@H](C(C)C)NC(=O)[C@H](CC(C)C)N(C)C(=O)[C@@H](CO)N(C)C1=O` [Compound V, [(3R,4R,5S)-4-Hydroxy-3-methyl-5-(methylamino)-1-N-morpholino-hexanoic acid]^1[(R)-hydroxymethyl-Sar]^3 cyclosporin A]: in data set [2], the Ki was 4.5 nM. Also, in data set [3] (25 °C, pH 7.8, aqueous buffer), the solubility at 18 h is more than 100 µM.
